In PubChem BioAssay AID248 (DTP/NCI, 2004) one finds T/C data, which are given here for 6 molecules.

For the experiment, the system named is L1210 leukemia ip in BDF1 mice, survival T/C. Description: NCI In Vivo Anticancer Drug Screen. Data for tumor model L1210 Leukemia (intraperitoneal) in B6D2F1 (BDF1) mice. To be noted: higher = longer survival. The gist of the method: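 Value reflects the ratio of survival in compound-treated mice to survival in vehicle-treated controls, with both groups carrying the same transplanted tumor.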

Where [1] appears, read: endpoint: mean survival time, dose: 100.0 mg/kg/injection, schedule: Q04DX003 (ip), vehicle: saline with Tween-80.
[2] abbreviates: endpoint: mean survival time, dose: 200.0 mg/kg/injection, schedule: Q04DX003 (ip), vehicle: saline with Tween-80.

Where “and” joins values, the source holds several entries; their conditions need not be identical. Equal entries are not always repeated. Inconclusive results and toxic doses are left out.

Take `Cn1cnc([N+](=O)[O-])c1Sc1nc(N)nc2nc[nH]c12`: the T/C (endpoint: mean survival time, dose: 0.16 mg/kg/injection, schedule: Q#A X030 (oral), vehicle: saline) is 110 % of control; the T/C (endpoint: mean survival time, dose: 0.31 mg/kg/injection, schedule: Q#A X030 (oral), vehicle: saline) was 106 % of control; the T/C (endpoint: mean survival time, dose: 0.62 mg/kg/injection, schedule: Q#A X030 (oral), vehicle: saline) was 108 % of control; the T/C (endpoint: mean survival time, dose: 0.9 mg/kg/injection, schedule: Q03DX005 (oral), vehicle: saline) is 101 % of control; the T/C (endpoint: mean survival time, dose: 1.2 mg/kg/injection, schedule: Q01DX006 (iv), vehicle: saline) was 105 % of control; the T/C (endpoint: mean survival time, dose: 1.2 mg/kg/injection, schedule: Q01DX Z (im), vehicle: saline) is 105 % of control. In addition, the T/C runs as follows: (endpoint: mean survival time, dose: 1.2 mg/kg/injection, schedule: Q01DX Z (ip), vehicle: saline) 168 % of control; (endpoint: mean survival time, dose: 1.2 mg/kg/injection, schedule: Q01DX Z (sc), vehicle: saline) 166 % of control; (endpoint: mean survival time, dose: 1.25 mg/kg/injection, schedule: Q01DX010 (ip), vehicle: saline) 112 % of control and 120 % of control; (endpoint: mean survival time, dose: 1.25 mg/kg/injection, schedule: Q#A X030 (oral), vehicle: saline) 113 % of control; (endpoint: mean survival time, dose: 1.6 mg/kg/injection, schedule: Q01DX001 (oral), vehicle: saline) 110 % of control; (endpoint: mean survival time, dose: 1.9 mg/kg/injection, schedule: Q03DX005 (oral), vehicle: saline) 106 % of control. In addition, the T/C (endpoint: mean survival time, dose: 2.1 mg/kg/injection, schedule: Q07DX003 (oral), vehicle: saline) was 102 % of control; the T/C (endpoint: mean survival time, dose: 2.5 mg/kg/injection, schedule: Q01DX006 (iv), vehicle: saline) is 109 % of control; the T/C (endpoint: mean survival time, dose: 2.5 mg/kg/injection, schedule: Q01DX009 (ip), vehicle: saline) was 151 % of control and 159 % of control; the T/C (endpoint: mean survival time, dose: 2.5 mg/kg/injection, schedule: Q01DX010 (ip), vehicle: saline) is 154 % of control and 155 % of control; the T/C (endpoint: mean survival time, dose: 2.5 mg/kg/injection, schedule: Q01DX Z (im), vehicle: saline) is 100 % of control; the T/C (endpoint: mean survival time, dose: 2.5 mg/kg/injection, schedule: Q01DX Z (ip), vehicle: saline) was 150 % of control. Further, the T/C was 104 % of control and 108 % of control (endpoint: mean survival time, dose: 3.13 mg/kg/injection, schedule: Q01DX001 (oral), vehicle: saline); 104 % of control (endpoint: mean survival time, dose: 3.8 mg/kg/injection, schedule: Q03DX005 (oral), vehicle: saline); 106 % of control (endpoint: mean survival time, dose: 4.3 mg/kg/injection, schedule: Q07DX003 (oral), vehicle: saline); 156 % of control (endpoint: mean survival time, dose: 5.0 mg/kg/injection, schedule: Q01DX009 (ip), vehicle: saline); 161 % of control and 163 % of control (endpoint: mean survival time, dose: 5.0 mg/kg/injection, schedule: Q01DX010 (ip), vehicle: saline); 166 % of control (endpoint: mean survival time, dose: 5.0 mg/kg/injection, schedule: Q01DX Z (ip), vehicle: saline). The T/C runs as follows: (endpoint: mean survival time, dose: 5.0 mg/kg/injection, schedule: Q01DX Z (oral), vehicle: saline) 116 % of control; (endpoint: mean survival time, dose: 5.0 mg/kg/injection, schedule: Q01DX Z (sc), vehicle: saline) 209 % of control; (endpoint: mean survival time, dose: 6.0 mg/kg/injection, schedule: Q01DX001 (ip), vehicle: saline) 109 % of control and 113 % of control; (endpoint: mean survival time, dose: 6.25 mg/kg/injection, schedule: Q01DX001 (oral), vehicle: saline) 102 % of control; (endpoint: mean survival time, dose: 7.5 mg/kg/injection, schedule: Q03DX005 (oral), vehicle: saline) 112 % of control; (endpoint: mean survival time, dose: 8.7 mg/kg/injection, schedule: Q07DX003 (oral), vehicle: saline) 113 % of control. In addition, the T/C is, setting by setting: (endpoint: mean survival time, dose: 10.0 mg/kg/injection, schedule: Q01DX010 (ip), vehicle: saline) 152 % of control; (endpoint: mean survival time, dose: 10.0 mg/kg/injection, schedule: Q01DX Z (oral), vehicle: saline) 123 % of control; (endpoint: mean survival time, dose: 12.5 mg/kg/injection, schedule: Q01DX001 (oral), vehicle: saline) 110 % of control; (endpoint: mean survival time, dose: 17.5 mg/kg/injection, schedule: Q07DX003 (oral), vehicle: saline) 122 % of control; (endpoint: mean survival time, dose: 20.0 mg/kg/injection, schedule: Q01DX006 (iv), vehicle: saline) 153 % of control; (endpoint: mean survival time, dose: 20.0 mg/kg/injection, schedule: Q01DX009 (ip), vehicle: saline) 114 % of control and 120 % of control. The T/C is 166 % of control (endpoint: mean survival time, dose: 22.0 mg/kg/injection, schedule: Q01DX001 (ip), vehicle: carboxymethylcellulose (CMC)); 116 % of control and 239 % of control (endpoint: mean survival time, dose: 25.0 mg/kg/injection, schedule: Q01DX001 (ip), vehicle: saline); 174 % of control (endpoint: mean survival time, dose: 35.0 mg/kg/injection, schedule: Q01DX001 (ip), vehicle: carboxymethylcellulose (CMC)); 174 % of control (endpoint: mean survival time, dose: 40.0 mg/kg/injection, schedule: Q01DX Z (oral), vehicle: saline); 180 % of control (endpoint: mean survival time, dose: 52.0 mg/kg/injection, schedule: Q01DX001 (ip), vehicle: carboxymethylcellulose (CMC)); 196 % of control (endpoint: mean survival time, dose: 78.0 mg/kg/injection, schedule: Q01DX001 (ip), vehicle: carboxymethylcellulose (CMC)). Moreover, the T/C (endpoint: mean survival time, dose: 80.0 mg/kg/injection, schedule: Q01DX Z (oral), vehicle: saline) was 163 % of control; the T/C (endpoint: mean survival time, dose: 100.0 mg/kg/injection, schedule: Q01DX001 (ip), vehicle: saline) is 200 % of control and 254 % of control; the T/C (endpoint: mean survival time, dose: 160.0 mg/kg/injection, schedule: Q01DX Z (im), vehicle: saline) was 96 % of control; the T/C (endpoint: mean survival time, dose: 160.0 mg/kg/injection, schedule: Q01DX Z (oral), vehicle: saline) is 111 % of control; the T/C (endpoint: mean survival time, dose: 320.0 mg/kg/injection, schedule: Q01DX Z (oral), vehicle: saline) was 91 % of control; the T/C (endpoint: mean survival time, dose: 640.0 mg/kg/injection, schedule: Q01DX Z (oral), vehicle: saline) is 86 % of control. Moreover, the T/C (endpoint: mean survival time, dose: 960.0 mg/kg/injection, schedule: Q03DX005 (oral), vehicle: saline) was 106 % of control; the T/C (endpoint: mean survival time, dose: 1920.0 mg/kg/injection, schedule: Q03DX005 (oral), vehicle: saline) is 100 % of control; the T/C (endpoint: median survival time, dose: 2.5 mg/kg/injection, schedule: Q01DX009 (ip), vehicle: saline) is 150 % of control; the T/C (endpoint: median survival time, dose: 10.0 mg/kg/injection, schedule: Q01DX009 (ip), vehicle: saline) was 115 % of control; the T/C (endpoint: median survival time, dose: 20.0 mg/kg/injection, schedule: Q01DX009 (ip), vehicle: saline) is 100 % of control and 118 % of control.

For `C=CCOCC(O)CN(C)CC1CCCO1` (stereo unspecified), the T/C (endpoint: mean survival time, dose: 100.0 mg/kg/injection, schedule: Q01DX009 (ip), vehicle: saline) is 95 % of control; the T/C (endpoint: mean survival time, dose: 100.0 mg/kg/injection, schedule: Q04DX003 (ip), vehicle: saline) is 98 % of control; the T/C (endpoint: mean survival time, dose: 200.0 mg/kg/injection, schedule: Q01DX009 (ip), vehicle: saline) is 95 % of control; the T/C (endpoint: mean survival time, dose: 200.0 mg/kg/injection, schedule: Q04DX003 (ip), vehicle: saline) is 86 % of control.

With `CC(=O)CC(=O)Nc1cccc(Br)c1`, the T/C reads like this: under setting [1], 102 % of control; under setting [2], 97 % of control; (endpoint: mean survival time, dose: 400.0 mg/kg/injection, schedule: Q04DX003 (ip), vehicle: saline with Tween-80) 97 % of control.

`OCC1OC(c2ccccc2)OC(CO)C(O)C1O` (stereo unspecified): the T/C reads like this: under setting [1], 88 % of control; under setting [2], 88 % of control.

Regarding `O=C(O)CCc1nc2ccccc2[nH]1`, the T/C (endpoint: mean survival time, dose: 75.0 mg/kg/injection, schedule: Q01DX009 (ip), vehicle: Klucel (hydroxypropylcellulose) (HPC)) is 107 % of control; the T/C (endpoint: mean survival time, dose: 150.0 mg/kg/injection, schedule: Q01DX009 (ip), vehicle: Klucel (hydroxypropylcellulose) (HPC)) is 100 % of control; the T/C (endpoint: mean survival time, dose: 300.0 mg/kg/injection, schedule: Q01DX009 (ip), vehicle: Klucel (hydroxypropylcellulose) (HPC)) was 104 % of control.

Take `COc1ccc(NC(=O)Nc2cccc(Cl)c2C)cc1`: the T/C (endpoint: mean survival time, dose: 100.0 mg/kg/injection, schedule: Q01DX009 (sc), vehicle: olive oil, sesame oil, peanut oil) is 100 % of control; the T/C (endpoint: mean survival time, dose: 100.0 mg/kg/injection, schedule: Q04DX003 (sc), vehicle: olive oil, sesame oil, peanut oil) was 100 % of control; the T/C (endpoint: mean survival time, dose: 200.0 mg/kg/injection, schedule: Q01DX009 (sc), vehicle: olive oil, sesame oil, peanut oil) was 96 % of control; the T/C (endpoint: mean survival time, dose: 200.0 mg/kg/injection, schedule: Q04DX003 (sc), vehicle: olive oil, sesame oil, peanut oil) was 98 % of control; the T/C (endpoint: mean survival time, dose: 400.0 mg/kg/injection, schedule: Q01DX009 (sc), vehicle: olive oil, sesame oil, peanut oil) is 100 % of control; the T/C (endpoint: mean survival time, dose: 400.0 mg/kg/injection, schedule: Q04DX003 (sc), vehicle: olive oil, sesame oil, peanut oil) was 101 % of control.
